Measurements: US20240374631A1, “A COMPOSITION FOR IMPROVING GUT MICROBIOTA, BEHAVIOURAL PATTERN, ALPHA-SYNUCLEIN LEVELS, SLEEP PATTERN AND/OR SERUM MELATONIN” (GN Corporation Co Ltd, priority 2021, published 2024)

Tested on: fecal metabolome
Test: Fecal metabolome analysis (GC-MS peak height, PCA, OPLS-DA) in STAM model of NASH
Assay type: in vivo, C57BL/6J mice

Structure (SMILES): CCCc1nc2c(C)cc(-c3nc4ccccc4n3C)cc2n1Cc1ccc(-c2ccccc2C(=O)O)cc1 [Telmisartan]
- Peak height after normalization, 2-Aminobutyric acid-2TMS (Difference): 17954.52
- Peak height after normalization, 2-Hydroxyisobutyric acid-2TMS (Difference): 133880.36
- Peak height after normalization, 3-Aminoglutaric acid-3TMS (Difference): 8627.53
- Peak height after normalization, 3-Hydroxybutyric acid-2TMS (Difference): −4608.17
- Peak height after normalization, 5-Aminovaleric acid-3TMS (Difference): 26394.02
- Peak height after normalization, Glutamic acid-3TMS (Difference): 382709.41
- Peak height after normalization, Glutamine-3TMS (Difference): 30745.13
- Peak height after normalization, Glycine-3TMS (Difference): 109331.29
- Peak height after normalization, Hypoxanthine-2TMS (Difference): 23680.72
- Peak height after normalization, Lactic acid-2TMS (Difference): −35605.88
- Peak height after normalization, Leucine-2TMS (Difference): 267732.46
- Peak height after normalization, Lysine-4TMS (Difference): 360841.28
- Peak height after normalization, Malic acid-3TMS (Difference): −16354.66
- Peak height after normalization, Norvaline-TMS (Difference): 37744.18
- Peak height after normalization, Phosphoric acid-3TMS (Difference): 15228.48
- Peak height after normalization, Proline-2TMS (Difference): 52750.51
- Peak height after normalization, Succinic acid-2TMS (Difference): 50806.69
- Peak height after normalization, Taurine-3TMS (Difference): 9869.33
- Peak height after normalization, Tyrosine-3TMS (Difference): 116635.49
- Peak height after normalization, Uracil-2TMS (Difference): −3276.22
- Peak height after normalization, Valine-2TMS (Difference): 267808.23
- Peak height after normalization, 2-Aminobutyric acid-2TMS (Post): 43700.57
- Peak height after normalization, 3-Aminoglutaric acid-3TMS (Post): 12436.04
- Peak height after normalization, 3-Hydroxybutyric acid-2TMS (Post): 10891.34
- Peak height after normalization, Alanine-2TMS (Post): 1268525.27
- Peak height after normalization, Glycerol-3TMS (Post): 324467.91
- Peak height after normalization, Glycine-3TMS (Post): 288456.14
- Peak height after normalization, Isoleucine-2TMS (Post): 381173.16
- Peak height after normalization, Lactic acid-2TMS (Post): 36363.66
- Peak height after normalization, Leucine-2TMS (Post): 631954.96
- Peak height after normalization, Lysine-4TMS (Post): 952876.14
- Peak height after normalization, Malic acid-3TMS (Post): 38544.73
- Peak height after normalization, Methionine-2TMS (Post): 168797.44
- Peak height after normalization, Norvaline-TMS (Post): 110365.67
- Peak height after normalization, Phenylalamine-2TMS (Post): 342996.16
- Peak height after normalization, Phosphoric acid-3TMS (Post): 122301.92
- Peak height after normalization, Proline-2TMS (Post): 151136.53
- Peak height after normalization, Taurine-3TMS (Post): 24726.77
- Peak height after normalization, Tryptophan-3TMS (Post): 28678.00
- Peak height after normalization, Uracil-2TMS (Post): 71567.16
- Peak height after normalization, Valine-2TMS (Post): 521841.20
- Peak height after normalization, Xanthine-3TMS (Post): 103194.40
- Peak height after normalization, 3-Aminoglutaric acid-3TMS (Pre): 3808.51
- Peak height after normalization, 3-Hydroxybutyric acid-2TMS (Pre): 15499.52
- Peak height after normalization, 5-Aminovaleric acid-3TMS (Pre): 28517.91
- Peak height after normalization, 5-Oxoproline-2TMS (Pre): 113169.35
- Peak height after normalization, #Sz,899;-3TMS (Pre): 124526.34
- Peak height after normalization, Aspartic acid-3TMS (Pre): 183416.60
- Peak height after normalization, Glycerol-3TMS (Pre): 283873.86
- Peak height after normalization, Hypoxanthine-2TMS (Pre): 33144.25
- Peak height after normalization, Isoleucine-2TMS (Pre): 175687.57
- Peak height after normalization, Lactic acid-2TMS (Pre): 71969.33
- Peak height after normalization, Lysine-4TMS (Pre): 592034.86
- Peak height after normalization, Malic acid-3TMS (Pre): 54899.38
- Peak height after normalization, Methionine-2TMS (Pre): 103825.98
- Peak height after normalization, Norvaline-TMS (Pre): 72621.50
- Peak height after normalization, Phenylalamine-2TMS (Pre): 208441.78
- Peak height after normalization, Phosphoric acid-3TMS (Pre): 107073.44
- Peak height after normalization, Succinic acid-2TMS (Pre): 263097.91
- Peak height after normalization, Taurine-3TMS (Pre): 14857.44
- Peak height after normalization, Tryptophan-3TMS (Pre): 16169.30
- Peak height after normalization, Tyrosine-3TMS (Pre): 309190.46
- Peak height after normalization, Uracil-2TMS (Pre): 74843.38
- Peak height after normalization, Valine-2TMS (Pre): 254032.97
- Peak height after normalization, Xanthine-3TMS (Pre): 101684.60
